Measured values as given in publication PMC10141516 (Pharmaceutics, 2023).

Columns and labels:
[1] = Stability study of the APIs in pH buffers (total impurity by HPLC); type: physicochemical
Procedure: The column used was the Gemini C18 column (5.0 μm, 250 mm). Mobile phase A of the impurity study was prepared with KH2PO4 buffer (v/v, solution adjusted to pH 6.0 with 1 M KOH): acetonitrile: methanol = 85: 10: 5 (v/v/v), and mobile phase B was prepared with 90% acetonitrile. The mobile phase was filtered through a 0.4 μm polypropylene membrane filter and degassed via sonication. The diluted solution was prepared with KH2PO4 buffer (v/v, solution adjusted to pH 6.0 with 1 M KOH) and acetonitrile at a ratio of 7:3 (v/v). The wavelength, flow rate, and injection volume were set to 220 nm, 1.0 mL/min, and 20 μL, respectively. The column and sample thermostats were set to 35 °C and 5 °C, respectively. In the case of the impurity study, the analysis was performed by changing the composition of the mobile phase for 80 min using a gradient elution method for 80 min.
[…] […] We performed a calibration test, and the sample was diluted with a diluted solution and prepared at a concentration of 0.05–1 mg/mL.

[2] = cited from earlier work
[3] = Equilibrium solubility test (HPLC); conditions: for solubility thermodynamic at 12 h / solubility thermodynamic at 24 h: thermodynamic from solid
Procedure: The column used was an Agilent C18 column (5.0 μm, 4.6 × 150 mm). The mobile phase and diluted solution of the content and dissolution studies analyses were prepared with 0.5% triethylamine buffer (v/v, pH 6.8 adjusted with 85% phosphoric acid) and acetonitrile at a ratio of 7:3 (v/v). The mobile phase was filtered through a 0.45-μm polypropylene membrane filter and degassed via sonication. The wavelength, flow rate, and injection volume were set to 205 nm, 1.5 mL/min, and 20 μL, respectively. In the case of the content and dissolution studies, the mobile phase was constantly flowed for 18 min via an isocratic elution method and analyzed.
The equilibrium solubility test was used to calculate the input amount through the apparent solubility test result, and an excess of the API was placed in each beaker and stirred at 400 rpm. At 0, 12, and 24 h immediately after the overdose, 2 mL samples were taken and filtered through a 0.45-μm regenerated cellulose syringe filter. The supernatant of the filtered solution was taken and diluted with a content analysis diluted solution. […] A calibration test was performed, and the sample was diluted with a diluted solution and prepared at a concentration of 0.05–1 mg/mL.

[4] = Compatibility study API-excipient / API-API (total impurities by HPLC); type: physicochemical
Procedure: The column used was the Gemini C18 column (5.0 μm, 250 mm). […] The mobile phase was filtered through a 0.4 μm polypropylene membrane filter and degassed via sonication. […] The column and sample thermostats were set to 35 °C and 5 °C, respectively. […] The compatibility study was performed using appearance and impurity tests to confirm the interaction between each API and the excipient. Each API was mixed with mannitol, microcrystalline cellulose, lactose, silicified microcrystalline cellulose, calcium hydrogen phosphate anhydrous, pregelatinized starch, sodium starch glycolate, crospovidone, sodium croscarmellose, magnesium stearate, colloidal silicon dioxide, sodium stearyl fumarate, hydroxypropyl cellulose, calcium hydroxide, citric acid, and OPADRY II pink in a 1:1 (w/w) ratio and put into each clear glass vial.

[5] = oral; cited from earlier work
[6] = buffer solution, pH 3, aqueous buffer
[7] = buffer solution, pH 4, aqueous buffer
[8] = buffer solution, pH 5, aqueous buffer
[9] = buffer solution, pH 6, aqueous buffer
[10] = buffer solution, pH 6.8, aqueous buffer
[11] = buffer solution, pH 7, aqueous buffer
[12] = buffer solution, pH 8, aqueous buffer
[13] = buffer solution, pH 9, aqueous buffer
[14] = buffer solution, pH 10, aqueous buffer
[15] = pH 1.2 buffer solution, pH 1.2, aqueous buffer
[16] = pH 2.0 buffer solution, pH 2, aqueous buffer
[17] = pH 12.0 buffer solution, pH 12, aqueous buffer

## CCOc1ccc(Cc2cc([C@@H]3O[C@H](CO)[C@@H](O)[C@H](O)[C@H]3O)ccc2Cl)cc1 [Dapagliflozin, (1S)-1,5-Anhydro-1-C-[4-chloro-3-[(4-ethoxyphenyl)methyl]phenyl]-D-glucitol (S)-propane-1,2-diol (1:1) monohydrate]
[1]; pH 1.2 buffer, 20 ± 2 °C/60 ± 5% RH, 3 Days
  Total Impurity: 0.08%
[1]; pH 1.2 buffer, 20 ± 2 °C/60 ± 5% RH, 7 Days
  Total Impurity: 0.12%
[1]; pH 1.2 buffer, 40 ± 2 °C/75 ± 5% RH, 3 Days
  Total Impurity: 0.11%
[1]; pH 1.2 buffer, 40 ± 2 °C/75 ± 5% RH, 7 Days
  Total Impurity: 0.73%
[1]; pH 1.2 buffer, Initial
  Total Impurity: 0.06%
[1]; pH 2.0 buffer, 20 ± 2 °C/60 ± 5% RH, 3 Days
  Total Impurity: 0.00%
[1]; pH 2.0 buffer, 20 ± 2 °C/60 ± 5% RH, 7 Days
  Total Impurity: 0.00%
[1]; pH 2.0 buffer, 40 ± 2 °C/75 ± 5% RH, 3 Days
  Total Impurity: 0.02%
[1]; pH 2.0 buffer, 40 ± 2 °C/75 ± 5% RH, 7 Days
  Total Impurity: 1.03%
[1]; pH 2.0 buffer, Initial
  Total Impurity: 0.00%
[1]; pH 3.0 buffer, 20 ± 2 °C/60 ± 5% RH, 3 Days
  Total Impurity: 1.30%
[1]; pH 3.0 buffer, 20 ± 2 °C/60 ± 5% RH, 7 Days
  Total Impurity: 1.99%
[1]; pH 3.0 buffer, 40 ± 2 °C/75 ± 5% RH, 3 Days
  Total Impurity: 7.29%
[1]; pH 3.0 buffer, 40 ± 2 °C/75 ± 5% RH, 7 Days
  Total Impurity: 14.76%
[1]; pH 3.0 buffer, Initial
  Total Impurity: 0.06%
[1]; pH 4.0 buffer, 20 ± 2 °C/60 ± 5% RH, 3 Days
  Total Impurity: 0.00%
[1]; pH 4.0 buffer, 20 ± 2 °C/60 ± 5% RH, 7 Days
  Total Impurity: 0.01%
[1]; pH 4.0 buffer, 40 ± 2 °C/75 ± 5% RH, 3 Days
  Total Impurity: 0.04%
[1]; pH 4.0 buffer, 40 ± 2 °C/75 ± 5% RH, 7 Days
  Total Impurity: 0.12%
[1]; pH 4.0 buffer, Initial
  Total Impurity: 0.00%
[1]; pH 5.0 buffer, 20 ± 2 °C/60 ± 5% RH, 3 Days
  Total Impurity: 0.16%
[1]; pH 5.0 buffer, 20 ± 2 °C/60 ± 5% RH, 7 Days
  Total Impurity: 0.26%
[1]; pH 5.0 buffer, 40 ± 2 °C/75 ± 5% RH, 7 Days
  Total Impurity: 4.48%
[1]; pH 5.0 buffer, Initial
  Total Impurity: 0.00%
[1]; pH 6.0 buffer, 20 ± 2 °C/60 ± 5% RH, 3 Days
  Total Impurity: 0.00%
[1]; pH 6.0 buffer, 20 ± 2 °C/60 ± 5% RH, 7 Days
  Total Impurity: 0.04%
[1]; pH 6.0 buffer, 40 ± 2 °C/75 ± 5% RH, 3 Days
  Total Impurity: 0.15%
[1]; pH 6.0 buffer, 40 ± 2 °C/75 ± 5% RH, 7 Days
  Total Impurity: 0.28%
[1]; pH 6.0 buffer, Initial
  Total Impurity: 0.00%
[1]; pH 6.8 buffer, 20 ± 2 °C/60 ± 5% RH, 3 Days
  Total Impurity: 0.01%
[1]; pH 6.8 buffer, 20 ± 2 °C/60 ± 5% RH, 7 Days
  Total Impurity: 0.01%
[1]; pH 6.8 buffer, 40 ± 2 °C/75 ± 5% RH, 3 Days
  Total Impurity: 0.00%
[1]; pH 6.8 buffer, 40 ± 2 °C/75 ± 5% RH, 7 Days
  Total Impurity: 0.12%
[1]; pH 6.8 buffer, Initial
  Total Impurity: 0.00%
[1]; pH 7.0 buffer, 20 ± 2 °C/60 ± 5% RH, 3 Days
  Total Impurity: 0.02%
[1]; pH 7.0 buffer, 20 ± 2 °C/60 ± 5% RH, 7 Days
  Total Impurity: 0.04%
[1]; pH 7.0 buffer, 40 ± 2 °C/75 ± 5% RH, 3 Days
  Total Impurity: 0.7%
[1]; pH 7.0 buffer, 40 ± 2 °C/75 ± 5% RH, 7 Days
  Total Impurity: 0.69%
[1]; pH 7.0 buffer, Initial
  Total Impurity: 0.00%
[1]; pH 8.0 buffer, 20 ± 2 °C/60 ± 5% RH, 3 Days
  Total Impurity: 0.03%
[1]; pH 8.0 buffer, 20 ± 2 °C/60 ± 5% RH, 7 Days
  Total Impurity: 0.05%
[1]; pH 8.0 buffer, 40 ± 2 °C/75 ± 5% RH, 3 Days
  Total Impurity: 0.42%
[1]; pH 8.0 buffer, 40 ± 2 °C/75 ± 5% RH, 7 Days
  Total Impurity: 1.06%
[1]; pH 8.0 buffer, Initial
  Total Impurity: 0.00%
[1]; pH 9.0 buffer, 20 ± 2 °C/60 ± 5% RH, 3 Days
  Total Impurity: 1.27%
[1]; pH 9.0 buffer, 20 ± 2 °C/60 ± 5% RH, 7 Days
  Total Impurity: 1.47%
[1]; pH 9.0 buffer, 40 ± 2 °C/75 ± 5% RH, 3 Days
  Total Impurity: 3.90%
[1]; pH 9.0 buffer, 40 ± 2 °C/75 ± 5% RH, 7 Days
  Total Impurity: 6.31%
[1]; pH 9.0 buffer, Initial
  Total Impurity: 1.02%
[1]; pH 10.0 buffer, 20 ± 2 °C/60 ± 5% RH, 3 Days
  Total Impurity: 0.46%
[1]; pH 10.0 buffer, 20 ± 2 °C/60 ± 5% RH, 7 Days
  Total Impurity: 0.66%
[1]; pH 10.0 buffer, 40 ± 2 °C/75 ± 5% RH, 3 Days
  Total Impurity: 0.30%
[1]; pH 10.0 buffer, 40 ± 2 °C/75 ± 5% RH, 7 Days
  Total Impurity: 4.78%
[1]; pH 10.0 buffer, Initial
  Total Impurity: 0.15%
[1]; pH 11.0 buffer, 20 ± 2 °C/60 ± 5% RH, 3 Days
  Total Impurity: 0.14%
[1]; pH 11.0 buffer, 20 ± 2 °C/60 ± 5% RH, 7 Days
  Total Impurity: 0.22%
[1]; pH 11.0 buffer, 40 ± 2 °C/75 ± 5% RH, 3 Days
  Total Impurity: 1.99%
[1]; pH 11.0 buffer, 40 ± 2 °C/75 ± 5% RH, 7 Days
  Total Impurity: 3.69%
[1]; pH 11.0 buffer, Initial
  Total Impurity: 0.00%
[1]; pH 12.0 buffer, 20 ± 2 °C/60 ± 5% RH, 3 Days
  Total Impurity: 0.75%
[1]; pH 12.0 buffer, 20 ± 2 °C/60 ± 5% RH, 7 Days
  Total Impurity: 1.05%
[1]; pH 12.0 buffer, 40 ± 2 °C/75 ± 5% RH, 3 Days
  Total Impurity: 2.62%
[1]; pH 12.0 buffer, 40 ± 2 °C/75 ± 5% RH, 7 Days
  Total Impurity: 4.11%
[1]; pH 12.0 buffer, Initial
  Total Impurity: 0.00%
[2]
  BCS: Class 3
[3]; 900 mL of dissolution medium
  amount dissolved in dissolution medium: more than 0.33 mg per 1 mL
[3]; [6]
  solubility thermodynamic at 12 h: 400 µg/mL
  solubility thermodynamic at 24 h: 400 µg/mL
[3]; [7]
  solubility thermodynamic at 12 h: 370 µg/mL
  solubility thermodynamic at 24 h: 370 µg/mL
[3]; [8]
  solubility thermodynamic at 12 h: 370 µg/mL
  solubility thermodynamic at 24 h: 370 µg/mL
[3]; [9]
  solubility thermodynamic at 12 h: 320 µg/mL
  solubility thermodynamic at 24 h: 320 µg/mL
[3]; [10]
  solubility thermodynamic at 12 h: 330 µg/mL
  solubility thermodynamic at 24 h: 330 µg/mL
[3]; [11]
  solubility thermodynamic at 12 h: 320 µg/mL
  solubility thermodynamic at 24 h: 320 µg/mL
[3]; [12]
  solubility thermodynamic at 12 h: 350 µg/mL
  solubility thermodynamic at 24 h: 350 µg/mL
[3]; [13]
  solubility thermodynamic at 12 h: 340 µg/mL
  solubility thermodynamic at 24 h: 340 µg/mL
[3]; [14]
  solubility thermodynamic at 12 h: 340 µg/mL
  solubility thermodynamic at 24 h: 340 µg/mL
[3]; buffer solution, pH 11, aqueous buffer
  solubility thermodynamic at 12 h: 210 µg/mL
[3]; deionized water, water
  solubility thermodynamic at 12 h: 290 µg/mL
  solubility thermodynamic at 24 h: 290 µg/mL
[3]; [15]
  solubility thermodynamic at 12 h: 340 µg/mL
  solubility thermodynamic at 24 h: 340 µg/mL
[3]; [16]
  solubility thermodynamic at 12 h: 350 µg/mL
  solubility thermodynamic at 24 h: 350 µg/mL
[3]; pH 11.0 buffer solution, pH 11, aqueous buffer
  solubility thermodynamic at 24 h: 210 µg/mL
[3]; [17]
  solubility thermodynamic at 12 h: 240 µg/mL
  solubility thermodynamic at 24 h: 240 µg/mL
[4]; 20 ± 2 °C/60 ± 5% RH, 2 Weeks
  Total Impurities: 0.10%
[4]; 20 ± 2 °C/60 ± 5% RH, 4 Weeks
  Total Impurities: 0.09%
[4]; 40 ± 2 °C/75 ± 5% RH, 2 Weeks
  Total Impurities: 0.08%
[4]; 40 ± 2 °C/75 ± 5% RH, 4 Weeks
  Total Impurities: 0.12%
[4]; Initial
  Total Impurities: 0.09%
[5]
  Tmax: 2 h
